# Test results taken from ChEMBL document CHEMBL4321876 (J Med Chem, 2020).
# Key:
# [1] = molecular target: Histone acetyltransferase p300 (Homo sapiens, UniProt Q09472); assay: Inhibition of p300 (unknown origin) using histone H3 (1 to 21 residues) as substrate preincubated for 15 mins followed by substrate and [3H]acetyl-CoA addition and measured after 60 mins by scintillation counting analysis
# MV4-11 = assay: Antiproliferative activity against human MV4-11 cells measured after 3 days by celltiter-glo luminescence assay; assay type: functional, cell-based; settings: MV4-11, 72 h
# [2] = Intrinsic clearance in rat liver microsomes assessed per mg protein at 0.1 uM preincubated for 10 mins followed by NADPH addition and measured up to 60 mins by UPLC-MS/MS analysis; assay type: ADME, Microsome; settings: read-out: CLH
# [3] = Intrinsic clearance in mouse liver microsomes assessed per mg protein at 0.1 uM preincubated for 10 mins followed by NADPH addition and measured up to 60 mins by UPLC-MS/MS analysis; assay type: ADME, Microsome; settings: read-out: CLH
# [4] = Intrinsic clearance in human liver microsomes assessed per mg protein at 0.1 uM preincubated for 10 mins followed by NADPH addition and measured up to 60 mins by UPLC-MS/MS analysis; assay type: ADME, Microsome; settings: read-out: CLH
# [5] = Half life in Sprague-Dawley rat at 3 mg/kg, po by LC-MS/MS analysis; assay type: ADME, organism-based; settings: in vivo
# [6] = Tmax in Sprague-Dawley rat at 3 mg/kg, po by LC-MS/MS analysis; assay type: ADME, organism-based; settings: in vivo
# [7] = Cmax in Sprague-Dawley rat at 3 mg/kg, po by LC-MS/MS analysis; assay type: ADME, organism-based; set-up: dose 3 mg/kg, route oral; settings: in vivo
# [8] = AUClast in Sprague-Dawley rat at 3 mg/kg, po by LC-MS/MS analysis; assay type: ADME, organism-based; set-up: dose 3 mg/kg, time 0 - last, route oral; settings: in vivo
# [9] = AUClast in Sprague-Dawley rat at 1 mg/kg, iv by LC-MS/MS analysis; assay type: ADME, organism-based; set-up: dose 1 mg/kg, route intravenous, time 0 - last; settings: in vivo
# [10] = Clearance in Sprague-Dawley rat at 1 mg/kg, iv by LC-MS/MS analysis; assay type: ADME, organism-based; settings: in vivo
# [11] = Protein binding in rat plasma; assay type: ADME, cell-free; settings: read-out: PPB (converted)
# [12] = Volume of distribution at steady state in Sprague-Dawley rat at 1 mg/kg, iv by LC-MS/MS analysis; assay type: ADME, organism-based; settings: in vivo, read-out: Vdss
# [13] = Oral bioavailability in Sprague-Dawley rat at 3 mg/kg by LC-MS/MS analysis; assay type: ADME, organism-based; settings: in vivo
# [14] = Half life in Sprague-Dawley rat at 1 mg/kg, iv by LC-MS/MS analysis; assay type: ADME, organism-based; settings: in vivo
# Sequence of Histone acetyltransferase p300 (Q09472 whole entry, the tested form may be a part): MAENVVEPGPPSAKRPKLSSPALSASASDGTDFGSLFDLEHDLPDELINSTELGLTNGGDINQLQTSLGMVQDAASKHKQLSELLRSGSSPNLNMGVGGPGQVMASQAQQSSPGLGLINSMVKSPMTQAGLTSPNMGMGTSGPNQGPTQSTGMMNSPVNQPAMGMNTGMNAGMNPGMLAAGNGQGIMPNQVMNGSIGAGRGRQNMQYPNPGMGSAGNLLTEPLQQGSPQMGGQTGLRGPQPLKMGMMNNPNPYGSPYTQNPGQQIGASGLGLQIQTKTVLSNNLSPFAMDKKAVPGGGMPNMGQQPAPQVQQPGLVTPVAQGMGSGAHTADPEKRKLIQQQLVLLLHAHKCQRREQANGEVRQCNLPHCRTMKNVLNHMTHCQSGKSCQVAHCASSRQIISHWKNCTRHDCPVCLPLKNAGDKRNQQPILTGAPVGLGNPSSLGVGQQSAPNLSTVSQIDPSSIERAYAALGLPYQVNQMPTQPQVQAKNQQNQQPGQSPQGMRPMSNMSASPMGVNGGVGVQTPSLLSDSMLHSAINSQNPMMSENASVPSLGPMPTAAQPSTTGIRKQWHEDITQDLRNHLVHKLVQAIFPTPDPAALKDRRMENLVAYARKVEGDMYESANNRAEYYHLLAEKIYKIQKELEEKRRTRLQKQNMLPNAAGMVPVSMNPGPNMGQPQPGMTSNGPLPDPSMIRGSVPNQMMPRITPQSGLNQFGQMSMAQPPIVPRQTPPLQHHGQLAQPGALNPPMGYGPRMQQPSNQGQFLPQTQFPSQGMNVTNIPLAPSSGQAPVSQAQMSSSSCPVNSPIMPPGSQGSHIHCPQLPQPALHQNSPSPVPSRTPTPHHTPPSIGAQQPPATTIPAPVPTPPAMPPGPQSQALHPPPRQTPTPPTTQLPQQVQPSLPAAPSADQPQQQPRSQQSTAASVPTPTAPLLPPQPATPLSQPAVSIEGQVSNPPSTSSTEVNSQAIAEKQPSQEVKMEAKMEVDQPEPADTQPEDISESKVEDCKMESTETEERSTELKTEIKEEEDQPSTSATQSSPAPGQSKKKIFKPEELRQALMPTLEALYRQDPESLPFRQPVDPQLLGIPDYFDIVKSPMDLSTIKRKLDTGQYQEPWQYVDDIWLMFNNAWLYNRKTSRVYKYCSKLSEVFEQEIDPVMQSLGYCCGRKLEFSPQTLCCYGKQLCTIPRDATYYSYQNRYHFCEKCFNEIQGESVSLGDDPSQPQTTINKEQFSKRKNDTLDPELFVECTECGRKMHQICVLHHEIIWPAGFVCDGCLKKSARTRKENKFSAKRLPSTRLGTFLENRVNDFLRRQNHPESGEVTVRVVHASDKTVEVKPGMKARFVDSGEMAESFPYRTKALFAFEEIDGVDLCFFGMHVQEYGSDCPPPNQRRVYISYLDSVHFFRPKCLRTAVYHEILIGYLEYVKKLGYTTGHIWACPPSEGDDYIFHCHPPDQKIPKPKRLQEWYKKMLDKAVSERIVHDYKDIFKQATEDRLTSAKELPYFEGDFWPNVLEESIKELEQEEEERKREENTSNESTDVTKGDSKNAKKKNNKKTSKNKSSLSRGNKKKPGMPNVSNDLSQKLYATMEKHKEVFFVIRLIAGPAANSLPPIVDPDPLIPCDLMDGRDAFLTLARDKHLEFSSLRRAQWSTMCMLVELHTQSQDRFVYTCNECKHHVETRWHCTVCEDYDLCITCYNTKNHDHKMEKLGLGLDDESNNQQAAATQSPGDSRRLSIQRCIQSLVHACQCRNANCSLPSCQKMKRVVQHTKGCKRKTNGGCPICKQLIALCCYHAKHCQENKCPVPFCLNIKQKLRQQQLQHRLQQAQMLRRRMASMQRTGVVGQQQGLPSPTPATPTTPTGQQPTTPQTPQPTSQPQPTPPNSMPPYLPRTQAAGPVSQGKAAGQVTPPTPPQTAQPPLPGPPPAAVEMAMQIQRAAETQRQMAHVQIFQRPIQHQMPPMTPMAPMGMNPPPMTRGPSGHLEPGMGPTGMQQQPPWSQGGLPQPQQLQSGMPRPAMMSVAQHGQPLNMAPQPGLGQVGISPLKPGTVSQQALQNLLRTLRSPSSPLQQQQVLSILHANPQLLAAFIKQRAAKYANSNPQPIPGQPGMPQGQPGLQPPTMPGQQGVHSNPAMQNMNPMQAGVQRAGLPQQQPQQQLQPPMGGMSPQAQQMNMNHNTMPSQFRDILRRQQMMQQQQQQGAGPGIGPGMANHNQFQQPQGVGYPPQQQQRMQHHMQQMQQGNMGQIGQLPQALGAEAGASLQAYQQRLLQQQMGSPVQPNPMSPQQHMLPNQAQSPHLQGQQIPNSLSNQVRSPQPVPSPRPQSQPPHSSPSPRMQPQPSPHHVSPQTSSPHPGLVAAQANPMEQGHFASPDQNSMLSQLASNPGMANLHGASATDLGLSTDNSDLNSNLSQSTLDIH
SMILES,IC50 [1],IC50 (MV4-11),microsomal CLint at 0.1 µM [2],microsomal CLint at 0.1 µM [3],microsomal CLint at 0.1 µM [4],half-life [5],Tmax [6],Cmax [7],AUC(0-t) [8],AUC(0-t) [9],clearance [10],fraction unbound [11],Vd [12],bioavailability [13],half-life [14]
Cn1cc(-c2cnc3c(c2)CC[C@]32NC(=O)N(CC(=O)N3Cc4cc(F)ccc4OC[C@H]3C(F)(F)F)C2=O)cn1,10 nM,118 nM,–,–,–,–,–,–,–,–,–,–,–,–,–
CNC(=O)Nc1ccc2c(c1)CC[C@@]21OC(=O)N(CC(=O)N2Cc3ccccc3OC[C@H]2C)C1=O,–,72.8 nM,82.5 µL/min/mg,37.3 µL/min/mg,20.5 µL/min/mg,–,–,–,–,–,–,–,–,–,–
Cn1cc(-c2ccc3c(n2)CC[C@]32NC(=O)N(CC(=O)N3Cc4cc(F)ccc4OC[C@H]3C(F)(F)F)C2=O)cn1,14 nM,206 nM,–,–,–,–,–,–,–,–,–,–,–,–,–
CNC(=O)Nc1ccc2c(c1)CC[C@@]21OC(=O)N(CC(=O)N2Cc3cc(F)ccc3OC[C@H]2C(F)(F)F)C1=O,–,24.9 nM,47.8 µL/min/mg,52.3 µL/min/mg,31.1 µL/min/mg,85.8 min,60 min,80 nM,0.27 µM·h,–,–,–,–,–,–
CNC(=O)Nc1ccc2c(c1)CC[C@@]21OC(=O)N(CC(=O)N2Cc3ccc(F)cc3CC[C@H]2C(F)(F)F)C1=O,–,2.9 nM,94.4 µL/min/mg,106 µL/min/mg,161 µL/min/mg,–,–,–,–,–,–,–,–,–,–
Cn1cc(-c2ccc3c(c2)CC[C@@]32OC(=O)N(CC(=O)N3Cc4cc(F)ccc4OC[C@H]3C(F)(F)F)C2=O)cn1,2.4 nM,13.5 nM,57.8 µL/min/mg,60.9 µL/min/mg,35 µL/min/mg,87 min,25.2 min,390 nM,1.04 µM·h,0.97 µM·h,29.8 mL/min/kg,0.006,4 L/kg,35%,126 min
CNC(=O)Nc1ccc2c(c1)CC[C@@]21OC(=O)N(CC(=O)N2Cc3ccccc3CC[C@@H]2C)C1=O,> 1000 nM,> 5000 nM,–,–,–,–,–,–,–,–,–,–,–,–,–
CCC[C@@H]1CCc2ccccc2CN1C(=O)CN1C(=O)O[C@@]2(CCc3cc(NC(=O)NC)ccc32)C1=O,4 nM,12 nM,–,–,–,–,–,–,–,–,–,–,–,–,–
CNC(=O)Nc1ccc2c(c1)CC[C@]21NC(=O)N(CC(=O)N2Cc3cc(F)ccc3OC[C@H]2C2CC2)C1=O,4.2 nM,4.8 nM,9.2 µL/min/mg,9.6 µL/min/mg,9.4 µL/min/mg,59.4 min,24.6 min,7 nM,0.008 µM·h,–,–,–,–,–,–
Cn1cc(-c2ccc3c(c2)CC[C@]32NC(=O)N(CC(=O)N3Cc4cc(F)ccc4OC[C@H]3C3CC3)C2=O)cn1,1.3 nM,3.5 nM,40.8 µL/min/mg,155 µL/min/mg,33.7 µL/min/mg,59.4 min,30 min,620 nM,0.97 µM·h,1.53 µM·h,20.7 mL/min/kg,0.021,1 L/kg,21%,41.4 min
CNC(=O)Nc1ccc2c(c1)CC[C@@]21OC(=O)N(CC(=O)N2Cc3ccccc3CC[C@H]2C(C)C)C1=O,4.3 nM,10.7 nM,411 µL/min/mg,360 µL/min/mg,209 µL/min/mg,–,–,–,–,–,–,–,–,–,–
CNC(=O)Nc1ccc2c(c1)CC[C@@]21OC(=O)N(CC(=O)N2Cc3ccccc3CC[C@H]2C2CC2)C1=O,3.7 nM,8.8 nM,480 µL/min/mg,197 µL/min/mg,179 µL/min/mg,100 min,15 min,140 nM,0.21 µM·h,1.18 µM·h,27.9 mL/min/kg,–,0.88 L/kg,6%,37.2 min
CNC(=O)Nc1ccc2c(c1)CC[C@@]21OC(=O)N(CC(=O)N2Cc3ccccc3CC[C@@H]2C(F)(F)F)C1=O,> 1000 nM,> 5000 nM,–,–,–,–,–,–,–,–,–,–,–,–,–
CNC(=O)Nc1ccc2c(c1)CC[C@@]21OC(=O)N(CC(=O)N2Cc3ccccc3C[C@H]2C)C1=O,> 1000 nM,–,–,–,–,–,–,–,–,–,–,–,–,–,–
CNC(=O)Nc1ccc2c(c1)CC[C@@]21OC(=O)N(CC(=O)N2Cc3ccc(F)cc3CC[C@H]2C)C1=O,–,20.4 nM,265 µL/min/mg,219 µL/min/mg,255 µL/min/mg,–,–,–,–,–,–,–,–,–,–
CNC(=O)Nc1ccc2c(c1)CC[C@]21NC(=O)N(CC(=O)N2Cc3cc(F)ccc3OC[C@H]2C(F)(F)F)C1=O,7.5 nM,15.8 nM,3.1 µL/min/mg,16.4 µL/min/mg,10.2 µL/min/mg,267 min,15 min,20 nM,0.054 µM·h,–,–,–,–,–,–
CNC(=O)Nc1ccc2c(c1)CC[C@@]21OC(=O)N(CC(=O)N2CCCc3ccccc3C2)C1=O,> 500 nM,> 1000 nM,–,–,–,–,–,–,–,–,–,–,–,–,–
CNC(=O)Nc1ccc2c(c1)CC[C@]21OC(=O)N(CC(=O)N2Cc3ccccc3CC[C@H]2C)C1=O,46 nM,156 nM,–,–,–,–,–,–,–,–,–,–,–,–,–
CNC(=O)Nc1ccc2c(c1)CC[C@@]21NC(=O)N(CC(=O)N2Cc3cc(F)ccc3OC[C@H]2C(F)(F)F)C1=O,> 100 nM,> 1000 nM,–,–,–,–,–,–,–,–,–,–,–,–,–
Cn1cc(-c2cc3c(cn2)[C@]2(CC3)NC(=O)N(CC(=O)N3Cc4cc(F)ccc4OC[C@H]3C(F)(F)F)C2=O)cn1,30 nM,825 nM,–,–,–,–,–,–,–,–,–,–,–,–,–
CNC(=O)Nc1ccc2c(c1)CC[C@@]21OC(=O)N(CC(=O)N2Cc3ccccc3CC[C@H]2C(F)(F)F)C1=O,2.6 nM,8.2 nM,134 µL/min/mg,166 µL/min/mg,147 µL/min/mg,109 min,30 min,160 nM,0.36 µM·h,0.89 µM·h,35.1 mL/min/kg,–,1.34 L/kg,13.5%,40.2 min
CNC(=O)Nc1ccc2c(c1)CC[C@@]21OC(=O)N(CC(=O)N2Cc3ccc(F)cc3CC[C@H]2C2CC2)C1=O,–,4 nM,258 µL/min/mg,150 µL/min/mg,112 µL/min/mg,–,–,–,–,–,–,–,–,–,–
CNC(=O)Nc1ccc2c(c1)CC[C@]21OC(=O)N(CC(=O)N2Cc3ccccc3CC[C@H]2C(F)(F)F)C1=O,10 nM,77 nM,–,–,–,–,–,–,–,–,–,–,–,–,–
Cn1cc(-c2ccc3c(c2)CC[C@@]32OC(=O)N(CC(=O)N3Cc4cc(F)ccc4OC[C@H]3C3CC3)C2=O)cn1,4 nM,3.7 nM,121 µL/min/mg,113 µL/min/mg,81.5 µL/min/mg,72.6 min,30 min,57 nM,0.09 µM·h,–,–,0.007,–,–,–
CNC(=O)Nc1ccc2c(c1)CC[C@@]21OC(=O)N(CC(=O)N2Cc3ccccc3CC[C@H]2C)C1=O,10 nM,64.3 nM,–,–,–,–,–,–,–,–,–,–,–,–,–
CNC(=O)Nc1ccc2c(c1)CC[C@@]21NC(=O)N(CC(=O)N2Cc3cc(F)ccc3OC[C@H]2C2CC2)C1=O,73 nM,> 500 nM,–,–,–,–,–,–,–,–,–,–,–,–,–
